In publication PMC5681660, “Reduced hepatitis B and D viral entry using clinically applied drugs as novel inhibitors of the bile acid transporter NTCP” (Scientific Reports, 2017):
Where a name gives a salt, the structure may show the parent alone. Read-outs that look alike come from different tables or passages of the source. Non-standard residues stand in square brackets, D forms with d. Residues, ends and D or L forms follow the SMILES beside them. pGlu = O=C1CC[C@@H](C(=O)O)N1; Thz = O=C(O)[C@@H]1CSCN1

Columns and labels:
human NTCP [1] = biological target: T1, human NTCP (Homo sapiens, UniProt Q14973); assay: Screening fluorescent competitive Myrcludex B-FITC binding assay (96-well, 10 µM drug)
T1 sequence (Q14973 1-349): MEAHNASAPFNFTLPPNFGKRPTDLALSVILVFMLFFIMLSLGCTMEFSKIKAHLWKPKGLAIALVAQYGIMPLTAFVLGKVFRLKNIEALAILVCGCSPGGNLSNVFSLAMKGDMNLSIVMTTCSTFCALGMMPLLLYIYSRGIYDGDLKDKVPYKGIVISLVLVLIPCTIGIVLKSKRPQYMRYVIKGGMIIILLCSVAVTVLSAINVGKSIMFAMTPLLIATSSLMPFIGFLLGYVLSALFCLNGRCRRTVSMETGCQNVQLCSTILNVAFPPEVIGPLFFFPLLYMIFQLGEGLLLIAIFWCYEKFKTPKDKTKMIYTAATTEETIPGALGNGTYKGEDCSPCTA

human NTCP [2] = biological target: T1, human NTCP; assay: Screening taurocholate uptake assay (96-well, [14C]taurocholate, 10 µM drug)
[3] = Prestwick library screen, 10 µM drug, B-score of Myrcludex B-FITC binding
[4] = Prestwick library screen, 10 µM drug, B-score of taurocholate uptake
[5] = combined ranking from functional and binding assay B-scores
[6] = Prestwick library screen, Myrcludex B-FITC binding, 10 µM drug
[7] = Prestwick library screen, taurocholate uptake, 10 µM drug
[8] = ranking score beside the functional and binding assay B-scores of the screen
[9] = screen, 10 µM drug, Myrcludex B-FITC binding
[10] = combined ranking from functional and binding screening assays
[11] = screen, 10 µM drug, taurocholate uptake

SMILES	B-score binding assay (human NTCP [1]; [3])	B-score functional assay (human NTCP [2]; [4])	Ranking score (human NTCP [2]; [5])	B-score binding assay (human NTCP [1]; [6])	B-score functional assay (human NTCP [2]; [7])	Ranking score (human NTCP [2]; [8])	other results
O=C(O)c1cc(=O)c2c(OCC(O)COc3cccc4oc(C(=O)O)cc(=O)c34)cccc2o1 [Cromolyn disodium salt]	0.29	0.688	903.754	–	–	–	–
O=C(O)COCCN1CCN(C(c2ccccc2)c2ccc(Cl)cc2)CC1 (stereo not drawn) [Cetirizine dihydrochloride]	–	–	–	0.001	0.907	820.204	–
NCCc1cc[nH]n1 [Betazole hydrochloride]	–	–	–	1.024	0.019	836.299	–
CC(C)(C)NCC(O)COc1cccc2c1CC(O)C(O)C2 (stereo not drawn) [Nadolol]	1.627	0.292	986.853	–	–	–	–
CC[C@@]1(O)C(=O)OCc2c1cc1n(c2=O)Cc2cc3c(CN(C)C)c(O)ccc3nc2-1 [Topotecan]	–	–	–	0.007	0.858	819.148	–
O=C1CC[C@@H](C(=O)N2CSC[C@H]2C(=O)O)N1 [Pidotimod] ([pGlu]-[Thz]-OH)	0.063	1.132	884.212	–	–	–	–
C=CCOc1ccccc1OCC(O)CNC(C)C (stereo not drawn) [Oxprenolol hydrochloride]	–	–	–	–	–	–	B-score binding assay (human NTCP [1]; [9]): -0.666; Ranking score (human NTCP [2]; [10]): 434.185; B-score functional assay (human NTCP [2]; [11]): -0.061
CC(C(=O)O)c1ccc(C(=O)c2ccccc2)s1 (stereo not drawn) [Tiaprofenic acid]	1.57	0.836	1082.46	–	–	–	–
CCCCC1C(=O)N(c2ccccc2)N(c2ccc(O)cc2)C1=O (stereo not drawn) [Oxyphenbutazone]	0.23	2.782	1000.56	–	–	–	–
Oc1c(Cl)cc(Cl)c(Cl)c1Cc1c(O)c(Cl)cc(Cl)c1Cl [Hexachlorophene]	–	–	–	–	–	–	B-score binding assay (human NTCP [1]): 1.48; B-score functional assay (human NTCP [2]): -8.47; Ranking score (human NTCP [2]): 82.4136
O=C([O-])[C@H]1/C(=C/CO)O[C@@H]2CC(=O)N21.[K+] [Clavulanate potassium salt]	2.079	0.008	886.007	–	–	–	–
COc1ccccc1N1CCN(CCCCNC(=O)c2ccc3ccccc3c2)CC1.Cl.Cl [DO 897/99]	–	–	–	–	–	–	B-score binding assay (human NTCP [1]; [9]): -0.125; Ranking score (human NTCP [2]; [10]): 447.929; B-score functional assay (human NTCP [2]; [11]): -0.485
CCN(CC)CCOC(=O)c1ccc(N)cc1 [Procaine hydrochloride]	–	–	–	–	–	–	B-score binding assay (human NTCP [1]; [9]): 0.574; Ranking score (human NTCP [2]; [10]): 459.439; B-score functional assay (human NTCP [2]; [11]): -1.181
N[C@@H](C(=O)N[C@@H]1C(=O)N2C(C(=O)O)=C(Cl)CS[C@H]12)c1ccccc1.O [Cefaclor hydrate]	–	–	–	–	–	–	B-score binding assay (human NTCP [1]; [9]): -0.309; Ranking score (human NTCP [2]; [10]): 381.916; B-score functional assay (human NTCP [2]; [11]): -0.668
COc1ccc2cc([C@H](C)C(=O)O)ccc2c1 [Naproxen]	–	–	–	–	–	–	B-score binding assay (human NTCP [1]; [9]): -0.298; Ranking score (human NTCP [2]; [10]): 422.428; B-score functional assay (human NTCP [2]; [11]): -0.433
CC(Cc1ccccc1)NCCC(c1ccccc1)c1ccccc1 (stereo not drawn) [Prenylamine lactate]	0.388	1.102	975.256	–	–	–	–
CC1(C)OC(=O)NC1=O [Dimethadione]	–	–	–	–	–	–	B-score binding assay (human NTCP [1]; [9]): -1.829; Ranking score (human NTCP [2]; [10]): 328.253; B-score functional assay (human NTCP [2]; [11]): 0.349
CC(=O)O[C@H]1C[C@@H]2CC[C@@H]3[C@H](CC[C@@]4(C)[C@H]3C[C@H]([N+]3(C)CCCCC3)[C@@H]4OC(C)=O)[C@@]2(C)C[C@@H]1[N+]1(C)CCCCC1 [Pancuronium bromide]	–	–	–	-0.008	0.614	767.5	–
CN(C)CCc1c[nH]c2ccc(Cn3cncn3)cc12 [Rizatriptan benzoate]	–	–	–	3.436	-0.205	781.971	–
CC(C)[N+](C)(CCC(C(N)=O)(c1ccccc1)c1ccccc1)C(C)C [Isopropamide iodide]	–	–	–	0.056	0.036	698.928	–
Cc1ccc(C(=O)c2ccc(CC(=O)O)n2C)cc1 [Tolmetin sodium salt dihydrate]	2.458	0.203	996.915	–	–	–	–
CC[C@@]1(O)C(=O)OCc2c1cc1n(c2=O)Cc2cc3ccccc3nc2-1 [Camptothecine (S,+)]	0.08	0.986	879.695	–	–	–	–
COc1ccc(NS(=O)(=O)c2ccc(N)cc2)nn1 [Sulfamethoxypyridazine]	1.584	0.331	989.975	–	–	–	–

SMILES	B-score binding assay (human NTCP [1]; [3])	B-score functional assay (human NTCP [2]; [4])	Ranking score (human NTCP [2]; [5])	B-score binding assay (human NTCP [1]; [6])	B-score functional assay (human NTCP [2]; [7])	Ranking score (human NTCP [2]; [8])	other results
COC(=O)C1=C(C)NC(C)=C(C(=O)OCCN(C)Cc2ccccc2)C1c1cccc([N+](=O)[O-])c1 (stereo not drawn) [Nicardipine hydrochloride]	–	–	–	–	–	–	B-score binding assay (human NTCP [1]; [9]): -1.032; Ranking score (human NTCP [2]; [10]): 378.616; B-score functional assay (human NTCP [2]; [11]): -0.022
COc1ccccc1O [Guaiacol]	–	–	–	0.94	-0.032	782.911	–
Cc1ccc(N(CC2=NCCN2)c2cccc(O)c2)cc1 [Phentolamine hydrochloride]	–	–	–	1.392	-0.082	785.945	–
COc1ccc2c(c1)c(CC(=O)OCC(=O)O)c(C)n2C(=O)c1ccc(Cl)cc1 [Acemetacin]	–	–	–	0.865	0.011	813.791	–
CCOC(=O)C1=C(C)NC(C)=C(C(=O)OCC)C1c1ccccc1/C=C/C(=O)OC(C)(C)C [Lacidipine]	1.528	0.194	957.497	–	–	–	–
O=C(c1ccccc1)c1ccc2n1CCC2C(=O)O (stereo not drawn) [Ketorolac tromethamine]	–	–	–	–	–	–	B-score binding assay (human NTCP [1]; [9]): -0.614; Ranking score (human NTCP [2]; [10]): 396.636; B-score functional assay (human NTCP [2]; [11]): -0.269
CCCN(CCC)S(=O)(=O)c1ccc(C(=O)O)cc1 [Probenecid]	–	–	–	0.597	-0.194	677.591	–
COc1cccc2c1C(=O)c1c(O)c3c(c(O)c1C2=O)C[C@@](O)(C(C)=O)C[C@@H]3O[C@H]1C[C@H](N)[C@H](O)[C@H](C)O1 [Daunorubicin hydrochloride]	–	–	–	6.093	-0.357	740.439	–
OCCOCCN1CCN(C(c2ccccc2)c2ccc(Cl)cc2)CC1 (stereo not drawn) [Hydroxyzine dihydrochloride]	–	–	–	–	–	–	B-score binding assay (human NTCP [1]; [9]): -1.7; Ranking score (human NTCP [2]; [10]): 394.018; B-score functional assay (human NTCP [2]; [11]): 1.371
COc1ccc(C[C@@H](C)NC[C@H](O)c2ccc(O)c(NC=O)c2)cc1.COc1ccc(C[C@@H](C)NC[C@H](O)c2ccc(O)c(NC=O)c2)cc1.O=C(O)/C=C/C(=O)O [Formoterol fumarate]	–	–	–	-0.165	1.513	764.904	–
CN(C/C=C/c1ccccc1)Cc1cccc2ccccc12 [Naftifine hydrochloride]	–	–	–	-0.234	0.726	685.775	–
S=c1[nH]cnc2nc[nH]c12 [Mercaptopurine]	–	–	–	–	–	–	B-score binding assay (human NTCP [1]; [9]): -0.534; Ranking score (human NTCP [2]; [10]): 451.727; B-score functional assay (human NTCP [2]; [11]): -0.084
O=C(NCC1CCCCN1)c1cc(OCC(F)(F)F)ccc1OCC(F)(F)F (stereo not drawn) [Flecainide acetate]	–	–	–	–	–	–	B-score binding assay (human NTCP [1]; [9]): 0.272; Ranking score (human NTCP [2]; [10]): 448.174; B-score functional assay (human NTCP [2]; [11]): -1.076
Nc1c2c(nc3ccccc13)CCCC2 [Tacrine hydrochloride]	–	–	–	0.755	-0.044	757.813	–
C[C@]12CC[C@H](O)C[C@@H]1CC[C@@H]1[C@@H]2CC[C@]2(C)C(=O)CC[C@@H]12 [Epiandrosterone]	–	–	–	–	–	–	B-score binding assay (human NTCP [1]): 2.961; B-score functional assay (human NTCP [2]): 2.177; Ranking score (human NTCP [2]): 1232.82
COc1ccc2cc(CCC(C)=O)ccc2c1 [Nabumetone]	–	–	–	–	–	–	B-score binding assay (human NTCP [1]; [9]): -1.377; Ranking score (human NTCP [2]; [10]): 286.691; B-score functional assay (human NTCP [2]; [11]): -0.236
CN1CCOC(c2ccccc2)c2ccccc2C1 (stereo not drawn) [Nefopam hydrochloride]	0.293	0.705	906.685	–	–	–	–
CCC1(c2ccc(N)cc2)CCC(=O)NC1=O (stereo not drawn) [Glutethimide, para-amino]	–	–	–	-0.055	0.113	663.514	–
C[C@H](N[C@@H](CCc1ccccc1)C(=O)O)C(=O)N1CCC[C@H]1C(=O)O.O.O [Enalaprilat dihydrate]	–	–	–	0.874	0.051	844.248	–
NC(=O)c1ncn([C@@H]2O[C@H](CO)[C@@H](O)[C@H]2O)n1 [Ribavirin]	–	–	–	-0.029	0.312	712.803	–
CCN1CCCC1CNC(=O)c1cc(S(=O)(=O)CC)c(N)cc1OC (stereo not drawn) [Amisulpride]	0.863	0.107	873.097	–	–	–	–
CC[C@@H]1C(=O)OC[C@@H]1Cc1cncn1C [Pilocarpine nitrate]	0.358	0.794	931.987	–	–	–	–
